According to PMC12090182, “Repurposing of the RIPK1-Selective Benzo[1,4]oxazepin-4-one Scaffold for the Development of a Type III LIMK1/2 Inhibitor” (ACS Chemical Biology, 2025):
Read-outs that look alike come from different tables or passages of the source.

What was measured:
Test in all cases: biochemical
Assay type in all cases: binding
[1] = target: 468 kinases including some pathogenic mutants (Homo sapiens, UniProt Q9UBE8); conditions: NLK (Entrez NLK), 100 nM; read-out: Percent Control
[2] = target: 468 kinases including some pathogenic mutants (Homo sapiens, UniProt Q9P289); conditions: MST4 (Entrez MST4), 100 nM; read-out: Percent Control
[3] = target: 468 kinases including some pathogenic mutants (Homo sapiens, UniProt Q8TDX7); conditions: NEK7 (Entrez NEK7), 100 nM; read-out: Percent Control
[4] = target: 468 kinases including some pathogenic mutants (Homo sapiens, UniProt Q96D53); conditions: ADCK4 (Entrez ADCK4), 100 nM; read-out: Percent Control
[5] = target: 468 kinases including some pathogenic mutants (Homo sapiens, UniProt Q9UBF8); conditions: PIK4CB (Entrez PI4KB), 100 nM; read-out: Percent Control
[6] = target: 468 kinases including some pathogenic mutants (Homo sapiens, UniProt Q15569); conditions: TESK1 (Entrez TESK1), 100 nM; read-out: Percent Control
[7] = target: 468 kinases including some pathogenic mutants (Homo sapiens, UniProt Q14680); conditions: MELK (Entrez MELK), 1000 nM; read-out: Percent Control
468 kinases including some pathogenic mutants (Homo sapiens, UniProt Q14680), sequence (Q14680 whole entry, change not shown): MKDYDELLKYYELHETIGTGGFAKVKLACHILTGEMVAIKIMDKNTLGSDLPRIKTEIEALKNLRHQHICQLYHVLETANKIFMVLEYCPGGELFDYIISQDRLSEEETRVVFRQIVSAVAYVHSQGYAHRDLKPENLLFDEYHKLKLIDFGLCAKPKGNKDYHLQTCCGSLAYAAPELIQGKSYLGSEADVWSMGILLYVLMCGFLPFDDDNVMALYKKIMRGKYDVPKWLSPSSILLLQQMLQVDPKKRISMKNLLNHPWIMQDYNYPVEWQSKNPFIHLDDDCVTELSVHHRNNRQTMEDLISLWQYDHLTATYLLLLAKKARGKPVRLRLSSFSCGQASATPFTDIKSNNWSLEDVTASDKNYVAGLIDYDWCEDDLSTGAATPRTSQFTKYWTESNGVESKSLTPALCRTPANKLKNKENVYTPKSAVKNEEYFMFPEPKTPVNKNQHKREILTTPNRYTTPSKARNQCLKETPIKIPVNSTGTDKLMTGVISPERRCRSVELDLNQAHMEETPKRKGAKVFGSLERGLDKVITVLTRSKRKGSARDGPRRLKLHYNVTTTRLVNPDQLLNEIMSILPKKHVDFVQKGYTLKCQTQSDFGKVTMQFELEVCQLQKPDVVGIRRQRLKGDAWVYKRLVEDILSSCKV

[8] = target: 468 kinases including some pathogenic mutants (Homo sapiens, UniProt P29597); conditions: read-out: Percent Control
468 kinases including some pathogenic mutants (Homo sapiens, UniProt P29597), sequence (P29597 whole entry, change not shown): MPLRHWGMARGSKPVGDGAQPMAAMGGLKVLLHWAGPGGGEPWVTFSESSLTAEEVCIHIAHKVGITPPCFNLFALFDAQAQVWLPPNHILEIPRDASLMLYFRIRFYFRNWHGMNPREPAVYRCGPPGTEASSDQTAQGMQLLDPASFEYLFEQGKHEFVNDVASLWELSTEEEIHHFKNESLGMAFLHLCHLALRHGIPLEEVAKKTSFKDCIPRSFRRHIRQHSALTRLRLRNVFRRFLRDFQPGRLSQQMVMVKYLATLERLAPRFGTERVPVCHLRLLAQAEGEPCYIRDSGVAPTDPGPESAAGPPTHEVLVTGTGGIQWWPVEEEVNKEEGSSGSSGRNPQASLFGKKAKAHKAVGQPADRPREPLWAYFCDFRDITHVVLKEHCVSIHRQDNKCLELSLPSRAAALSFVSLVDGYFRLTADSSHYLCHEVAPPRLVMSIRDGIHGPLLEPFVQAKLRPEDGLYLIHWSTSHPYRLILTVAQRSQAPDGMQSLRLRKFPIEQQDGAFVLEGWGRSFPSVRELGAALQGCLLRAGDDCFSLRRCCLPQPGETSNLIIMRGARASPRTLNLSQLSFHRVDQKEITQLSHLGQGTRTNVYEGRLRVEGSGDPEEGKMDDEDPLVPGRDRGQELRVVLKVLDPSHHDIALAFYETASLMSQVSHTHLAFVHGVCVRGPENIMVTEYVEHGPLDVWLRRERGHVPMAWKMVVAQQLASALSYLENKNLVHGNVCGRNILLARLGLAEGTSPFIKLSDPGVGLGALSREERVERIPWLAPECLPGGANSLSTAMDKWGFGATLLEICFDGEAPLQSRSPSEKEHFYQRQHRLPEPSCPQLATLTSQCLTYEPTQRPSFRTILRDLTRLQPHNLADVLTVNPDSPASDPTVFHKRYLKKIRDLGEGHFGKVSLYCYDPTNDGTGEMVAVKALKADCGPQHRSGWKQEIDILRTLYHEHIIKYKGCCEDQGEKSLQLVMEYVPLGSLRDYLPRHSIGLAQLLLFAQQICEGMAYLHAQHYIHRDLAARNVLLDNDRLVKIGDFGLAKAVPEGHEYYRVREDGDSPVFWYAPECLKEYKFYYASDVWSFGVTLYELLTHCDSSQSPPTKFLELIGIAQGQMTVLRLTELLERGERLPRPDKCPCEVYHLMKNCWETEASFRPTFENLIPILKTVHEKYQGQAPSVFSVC

[9] = target: 468 kinases including some pathogenic mutants (Homo sapiens, UniProt Q13705); conditions: ACVR2B (Entrez ACVR2B), 100 nM; read-out: Percent Control
[10] = target: 468 kinases including some pathogenic mutants (Homo sapiens, UniProt P42336, I800L); conditions: read-out: Percent Control
[11] = target: 468 kinases including some pathogenic mutants (Homo sapiens, UniProt Q9UPZ9); conditions: ICK (Entrez ICK), 100 nM; read-out: Percent Control
[12] = target: 468 kinases including some pathogenic mutants (Homo sapiens, UniProt Q8TDC3); conditions: BRSK1 (Entrez BRSK1), 100 nM; read-out: Percent Control
[13] = target: 468 kinases including some pathogenic mutants (Homo sapiens, UniProt P49137); conditions: MAPKAPK2 (Entrez MAPKAPK2), 100 nM; read-out: Percent Control
[14] = target: 468 kinases including some pathogenic mutants (Homo sapiens, UniProt P17612); conditions: PKAC-alpha (Entrez PRKACA), 1000 nM; read-out: Percent Control
[15] = target: 468 kinases including some pathogenic mutants (Homo sapiens, UniProt P00533, DEL746-750); conditions: read-out: Percent Control
[16] = target: 468 kinases including some pathogenic mutants (Homo sapiens, UniProt P36888); conditions: FLT3-autoinhibited (Entrez FLT3), 100 nM; read-out: Percent Control
[17] = target: 468 kinases including some pathogenic mutants (Homo sapiens, UniProt Q9UF33); conditions: EPHA6 (Entrez EPHA6), 100 nM; read-out: Percent Control
[18] = target: 468 kinases including some pathogenic mutants (Homo sapiens, UniProt Q9Y2U5); conditions: MAP3K2 (Entrez MAP3K2), 1000 nM; read-out: Percent Control
[19] = target: 468 kinases including some pathogenic mutants (Homo sapiens, UniProt Q14164); conditions: IKK-epsilon (Entrez IKBKE), 100 nM; read-out: Percent Control
[20] = target: 468 kinases including some pathogenic mutants (Homo sapiens, UniProt Q8TF76); conditions: HASPIN (Entrez GSG2), 100 nM; read-out: Percent Control
[21] = target: 468 kinases including some pathogenic mutants (Homo sapiens, UniProt Q15139); conditions: PRKD1 (Entrez PRKD1), 100 nM; read-out: Percent Control
468 kinases including some pathogenic mutants (Homo sapiens, UniProt Q15139), sequence (Q15139 whole entry, change not shown): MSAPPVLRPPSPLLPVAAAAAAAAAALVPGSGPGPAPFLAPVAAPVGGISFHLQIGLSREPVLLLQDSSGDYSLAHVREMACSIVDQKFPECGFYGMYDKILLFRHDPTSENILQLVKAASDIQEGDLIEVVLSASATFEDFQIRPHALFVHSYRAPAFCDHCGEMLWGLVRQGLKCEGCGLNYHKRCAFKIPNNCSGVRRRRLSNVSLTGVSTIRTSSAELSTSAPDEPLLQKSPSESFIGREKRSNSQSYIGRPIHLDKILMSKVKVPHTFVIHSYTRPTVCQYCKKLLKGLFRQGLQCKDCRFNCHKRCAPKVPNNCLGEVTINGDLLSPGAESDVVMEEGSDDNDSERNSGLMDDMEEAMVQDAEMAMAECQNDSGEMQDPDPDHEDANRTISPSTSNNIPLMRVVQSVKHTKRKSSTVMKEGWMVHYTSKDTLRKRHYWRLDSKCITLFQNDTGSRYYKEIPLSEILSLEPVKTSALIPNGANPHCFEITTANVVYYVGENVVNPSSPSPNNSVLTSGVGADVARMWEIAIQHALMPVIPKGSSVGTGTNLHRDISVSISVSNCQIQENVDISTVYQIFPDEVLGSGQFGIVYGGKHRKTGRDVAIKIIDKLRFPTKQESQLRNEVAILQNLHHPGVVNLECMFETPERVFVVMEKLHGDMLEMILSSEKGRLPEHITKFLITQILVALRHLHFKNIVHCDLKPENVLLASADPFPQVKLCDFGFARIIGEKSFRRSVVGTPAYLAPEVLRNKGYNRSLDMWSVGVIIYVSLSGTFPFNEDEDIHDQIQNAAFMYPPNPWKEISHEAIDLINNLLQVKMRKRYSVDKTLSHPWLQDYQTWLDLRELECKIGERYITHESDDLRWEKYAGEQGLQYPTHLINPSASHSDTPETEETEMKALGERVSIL

[22] = target: 468 kinases including some pathogenic mutants (Homo sapiens, UniProt O75676); conditions: 1000 nM, read-out: Percent Control
468 kinases including some pathogenic mutants (Homo sapiens, UniProt O75676), sequence (O75676 whole entry, change not shown): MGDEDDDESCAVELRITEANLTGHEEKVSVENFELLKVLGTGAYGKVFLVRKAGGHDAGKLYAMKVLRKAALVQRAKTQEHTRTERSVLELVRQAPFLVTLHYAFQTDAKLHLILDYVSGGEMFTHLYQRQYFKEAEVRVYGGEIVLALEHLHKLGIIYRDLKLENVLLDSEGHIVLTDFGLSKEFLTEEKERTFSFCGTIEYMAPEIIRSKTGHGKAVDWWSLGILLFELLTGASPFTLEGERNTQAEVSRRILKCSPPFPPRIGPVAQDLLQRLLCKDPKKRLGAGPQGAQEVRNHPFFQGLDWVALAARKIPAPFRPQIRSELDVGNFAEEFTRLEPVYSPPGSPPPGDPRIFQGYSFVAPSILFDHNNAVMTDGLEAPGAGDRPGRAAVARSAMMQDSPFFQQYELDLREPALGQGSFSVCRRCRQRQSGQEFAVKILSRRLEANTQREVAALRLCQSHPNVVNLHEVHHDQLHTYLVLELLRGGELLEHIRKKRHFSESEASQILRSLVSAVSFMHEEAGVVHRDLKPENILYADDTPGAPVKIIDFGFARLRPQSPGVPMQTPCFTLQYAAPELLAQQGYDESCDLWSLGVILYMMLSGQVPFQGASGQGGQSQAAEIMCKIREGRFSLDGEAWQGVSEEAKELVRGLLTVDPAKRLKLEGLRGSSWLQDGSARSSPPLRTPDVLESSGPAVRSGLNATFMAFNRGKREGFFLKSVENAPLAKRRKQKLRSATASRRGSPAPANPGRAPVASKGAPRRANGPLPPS

[23] = target: 468 kinases including some pathogenic mutants (Homo sapiens, UniProt P45983); conditions: JNK1 (Entrez MAPK8), 1000 nM; read-out: Percent Control
468 kinases including some pathogenic mutants (Homo sapiens, UniProt P45983), sequence (P45983 whole entry, stated change not applied): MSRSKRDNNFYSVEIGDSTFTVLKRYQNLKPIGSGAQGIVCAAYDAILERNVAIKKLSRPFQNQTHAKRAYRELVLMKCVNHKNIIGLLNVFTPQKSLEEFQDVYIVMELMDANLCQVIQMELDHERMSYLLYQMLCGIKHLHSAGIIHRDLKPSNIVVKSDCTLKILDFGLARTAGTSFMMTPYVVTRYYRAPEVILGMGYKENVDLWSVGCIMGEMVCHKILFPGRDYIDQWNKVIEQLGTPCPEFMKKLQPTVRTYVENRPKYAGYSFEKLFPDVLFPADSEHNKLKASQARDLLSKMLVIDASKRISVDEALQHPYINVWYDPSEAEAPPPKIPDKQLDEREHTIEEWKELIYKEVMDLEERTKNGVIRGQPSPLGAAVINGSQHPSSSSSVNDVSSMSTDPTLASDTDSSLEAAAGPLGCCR

[24] = target: 468 kinases including some pathogenic mutants (Homo sapiens, UniProt P42336, E545A); conditions: read-out: Percent Control
468 kinases including some pathogenic mutants (Homo sapiens, UniProt P42336, E545A), sequence (P42336 whole entry E545A): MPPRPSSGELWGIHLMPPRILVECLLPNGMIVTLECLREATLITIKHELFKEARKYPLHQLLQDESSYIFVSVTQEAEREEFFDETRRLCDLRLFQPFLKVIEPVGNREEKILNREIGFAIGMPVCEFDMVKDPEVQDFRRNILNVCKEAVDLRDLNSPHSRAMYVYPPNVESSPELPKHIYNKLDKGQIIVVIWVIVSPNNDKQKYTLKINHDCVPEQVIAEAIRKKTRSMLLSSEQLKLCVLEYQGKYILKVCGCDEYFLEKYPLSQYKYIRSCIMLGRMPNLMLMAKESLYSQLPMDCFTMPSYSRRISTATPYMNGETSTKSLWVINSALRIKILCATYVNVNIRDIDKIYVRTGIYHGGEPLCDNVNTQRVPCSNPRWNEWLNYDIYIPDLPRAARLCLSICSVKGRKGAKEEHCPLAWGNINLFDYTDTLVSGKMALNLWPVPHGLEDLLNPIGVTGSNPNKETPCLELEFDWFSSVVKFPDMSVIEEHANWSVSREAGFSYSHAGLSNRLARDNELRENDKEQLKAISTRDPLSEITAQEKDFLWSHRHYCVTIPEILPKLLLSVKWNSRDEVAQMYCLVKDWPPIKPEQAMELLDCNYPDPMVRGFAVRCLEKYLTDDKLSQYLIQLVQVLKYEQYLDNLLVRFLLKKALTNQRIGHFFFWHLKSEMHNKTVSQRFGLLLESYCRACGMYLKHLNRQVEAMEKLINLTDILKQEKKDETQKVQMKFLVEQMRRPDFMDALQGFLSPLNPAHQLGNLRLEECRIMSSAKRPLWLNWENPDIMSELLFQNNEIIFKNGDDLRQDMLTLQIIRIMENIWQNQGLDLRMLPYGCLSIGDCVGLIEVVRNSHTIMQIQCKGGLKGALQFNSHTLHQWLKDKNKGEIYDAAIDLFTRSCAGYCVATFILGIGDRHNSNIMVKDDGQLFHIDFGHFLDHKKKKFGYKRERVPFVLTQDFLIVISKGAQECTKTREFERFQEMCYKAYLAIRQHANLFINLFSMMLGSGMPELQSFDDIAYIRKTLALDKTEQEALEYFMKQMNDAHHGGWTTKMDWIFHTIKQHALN

[25] = target: 468 kinases including some pathogenic mutants (Homo sapiens, UniProt Q16584); conditions: MLK3 (Entrez MAP3K11), 100 nM; read-out: Percent Control
[26] = target: 468 kinases including some pathogenic mutants (Homo sapiens, UniProt P36507); conditions: MEK2 (Entrez MAP2K2), 1000 nM; read-out: Percent Control
[27] = target: 468 kinases including some pathogenic mutants (Homo sapiens, UniProt P48736); conditions: PIK3CG (Entrez PIK3CG), 100 nM; read-out: Percent Control
[28] = target: 468 kinases including some pathogenic mutants (Homo sapiens, UniProt P00519, E255K); conditions: read-out: Percent Control

With `CN1C(=O)[C@@H](N2CCc3c(nn(Cc4ccccc4)c3C(N)=O)C2=O)COc2cc(Cl)ccc21` [Compound 10, (S)-2-benzyl-6-(8-chloro-5-methyl-4-oxo-2,3,4,5-tetrahydrobenzo[b][1,4]oxazepin-3-yl)-7-oxo-4,5,6,7-tetrahydro-2H-pyrazolo[3,4-c]pyridine-3-carboxamide] as the molecule, how does the remaining activity at 0.1 µM [1] read?
Its remaining activity at 0.1 µM is 91%.

What about the remaining activity at 0.1 µM [2] of the same molecule?
Its remaining activity at 0.1 µM is 77%.

What about the remaining activity at 0.1 µM [3] of the same molecule?
The remaining activity at 0.1 µM was 77%.

What about the remaining activity at 0.1 µM [4] of the same molecule?
The remaining activity at 0.1 µM was 88%.

What about the remaining activity at 0.1 µM [5] of the same molecule?
Its remaining activity at 0.1 µM is 94%.

What about the remaining activity at 0.1 µM [6] of the same molecule?
The remaining activity at 0.1 µM was 79%.

What about the remaining activity at 1 µM [7] of the same molecule?
Its remaining activity at 1 µM is 100%.

And the remaining activity at 0.1 µM ([8]; TYK2(JH1domain-catalytic) (Entrez TYK2), 100 nM)?
The remaining activity at 0.1 µM was 72%.

What about the remaining activity at 1 µM [8] of the same molecule?
The remaining activity at 1 µM was 100%.

What about the remaining activity at 0.1 µM [9] of the same molecule?
The remaining activity at 0.1 µM was 92%.

And the remaining activity at 0.1 µM [10]?
The remaining activity at 0.1 µM was 71%.

What about the remaining activity at 0.1 µM [11] of the same molecule?
Its remaining activity at 0.1 µM is 100%.

What about the remaining activity at 0.1 µM [12] of the same molecule?
The remaining activity at 0.1 µM was 91%.

What about the remaining activity at 0.1 µM [13] of the same molecule?
Its remaining activity at 0.1 µM is 53%.

And the remaining activity at 1 µM [14]?
The remaining activity at 1 µM was 100%.

What about the remaining activity at 0.1 µM [15] of the same molecule?
The remaining activity at 0.1 µM was 78%.

And the remaining activity at 0.1 µM [16]?
The remaining activity at 0.1 µM was 84%.

What about the remaining activity at 0.1 µM [17] of the same molecule?
The remaining activity at 0.1 µM was 66%.

What about the remaining activity at 1 µM [18] of the same molecule?
Its remaining activity at 1 µM is 100%.

And the remaining activity at 0.1 µM [19]?
Its remaining activity at 0.1 µM is 61%.

And the remaining activity at 0.1 µM [20]?
Its remaining activity at 0.1 µM is 89%.

And the remaining activity at 0.1 µM [21]?
The remaining activity at 0.1 µM was 65%.

What about the remaining activity at 1 µM ([22]; RPS6KA4(Kin.Dom.1-N-terminal) (Entrez RPS6KA4)) of the same molecule?
The remaining activity at 1 µM was 100%.

And the remaining activity at 1 µM ([22]; RPS6KA4(Kin.Dom.2-C-terminal) (Entrez RPS6KA4))?
The remaining activity at 1 µM was 100%.

And the remaining activity at 1 µM [23]?
Its remaining activity at 1 µM is 100%.

And the remaining activity at 1 µM [24]?
Its remaining activity at 1 µM is 100%.

And the remaining activity at 0.1 µM [25]?
Its remaining activity at 0.1 µM is 100%.

What about the remaining activity at 1 µM [26] of the same molecule?
Its remaining activity at 1 µM is 100%.

What about the remaining activity at 0.1 µM [27] of the same molecule?
The remaining activity at 0.1 µM was 65%.

What about the remaining activity at 0.1 µM [28] of the same molecule?
Its remaining activity at 0.1 µM is 84%.
